The nature of data set [1]: Cell viability assay (MTT) on MCF-10A. The data set is classed as cell-based. The settings on record: human, MCF-10A mammary gland epithelial cells, MCF-10A cells, four days. As to the method:
To assess the viability of compounds IV and Va–i, the human mammary gland epithelial (MCF-10A) cell line was exploited. Compounds IV and Va–i were cultured for four days on MCF-10A cells before being evaluated for vitality using the MTT assay.
To test the viability of the new compounds, the human mammary gland epithelial (MCF-10A) cell line was used. Compounds IV and Va–i were incubated on MCF-10A cells for four days before being tested for viability using the MTT assay. See Supplementary Materials.
4.2. Biological evaluation
4.2.1. Cytotoxic activity using MTT Assay and evaluation of IC50
MTT assay was performed to investigate the effect of the synthesized compounds on mammary epithelial cells (MCF-10A). The cells were propagated in medium consisting of Ham's F-12 medium/ Dulbecco's modified Eagle's medium (DMEM) (1:1) supplemented with 10% foetal calf serum, 2 mM glutamine, insulin (10 μg/mL), hydrocortisone (500 ng/mL) and epidermal growth factor (20 ng/mL). Trypsin ethylenediamine tetra acetic acid (EDTA) was used to passage the cells after every 2-3 days. 96-well flat-bottomed cell culture plates were used to seed the cells at a density of 10^4 cells mL-1. The medium was aspirated from all the wells of culture plates after 24 h followed by the addition of synthesized compounds (in 200 μL medium to yield a final concentration of 0.1% (v/v) dimethyl sulfoxide) into individual wells of the plates. Four wells were designated to a single compound. The plates were allowed to incubate at 37°C for 96 h. Afterwards, the medium was aspirated and 3-[4,5-dimethylthiazol-2-yl]-2,5-diphenyltetrazolium bromide (MTT) (0.4 mg/mL) in medium was added to each well and subsequently incubated for 3 h. The medium was aspirated and 150 μL dimethyl sulfoxide (DMSO) was added to each well. The plates were vortexed followed by the measurement of absorbance at 540 nm on a microplate reader. The results were presented as inhibition (%) of proliferation in contrast to controls comprising 0.1%

The subject of data set [2] is caspase-8. The data set can be described thus: Caspase-8 level assay in A-549 cells. It counts as cell-based, human. To be noted: for Caspase-8 Conc: control 0.10; for Caspase-8 Fold Change: vs control. The protocol: (§1) See Supplementary Materials.
4.2.6. Caspase-8 activation assay […]
caspase8, and lysed with Cell Extraction Buffer. This lysate was diluted in Standard Diluent Buffer over the range of the assay and measured for human active caspase-8 content. (Cells are Plated in a density of 1.2 – 1.8 × 10,000 cells/well in a vo lume of 100µl complete growth medium + 100 ul of the tested compound per well in a 96-well plate for 24 hours before the enzyme assay for Tubulin.). The absorbance of each microwell was read on a spectro-photometer at 450 nm. A standard curve is prepared from 7human Caspase-8 standard dilutions and human Caspase-8 concentration determined. […]

The subject of data set [3] is Bcl-2. The data set can be described thus: Bcl-2 level assay in A-549 cells. The data set is classed as cell-based, human. The settings on record: for Bcl-2 Conc: control 5; for Bcl-2 Fold Reduction: vs control. The protocol:
Compounds Va and Vg were explored further for their impact on caspase-8, Bax, and Bacl-2 levels against a human epithelial cancer cell line (A-549) using doxorubicin as a reference. See Supplementary Materials. […]
4.2.8. Bcl-2inhibition assay
Mix all reagents thoroughly without foaming before use. Wash the microwells twice with approximately 300 μL Wash Buffer per well with thorough aspiration of microwell contents between washes. Take caution not to scratch the surface of the microwells. After the last wash, empty the wells and tap microwell strips on absorbent pad or paper towel to remove excess Wash Buffer. Use the microwell strips immediately after washing or place upside down on a wet absorbent paper for not longer than 15 minutes. […] Add 100 μL of Sample […]
Diluent in duplicate to all standard wells and to the blank wells. Prepare standard (1:2 dilution) in duplicate ranging from 32 ng/mL to 0.5 ng/mL. Add 100 μL of Sample Diluent, in duplicate, to the blank wells. Add 80 μL of Sample Diluent, in duplicate, to the sample wells. Add 20 μL of each Sample, in duplicate, to the designated wells. Add 50 μL of diluted biotin-conjugate to all wells, including the blank wells. Cover with a plate cover and incubate at room temperature, on a microplate shaker at 100 rpm if available, for 2 hours. Remove plate cover and empty the wells.
Wash microwell strips 3 times as described in step 2. Add 100 μL of diluted Streptavidin-HRP to all wells, including the blank wells. Cover with a plate cover and incubate at room temperature, on a microplate shaker at 100 rpm if available, for 1 hour. Remove plate cover and empty the wells.
Wash microwell strips 3 times as described in step 2. Proceed to the next step. Pipette 100 μl of mixed TMB Substrate Solution to all wells, including the blanks. Incubate the microwell strips at room temperature (18° to 25°C) for about 15 minutes, if available on a rotator set at 100 rpm.
Avoid direct exposure to intense light. The point, at which the substrate reaction is stopped, is often determined by the ELISA reader. Many ELISA readers record absorbance only up to 2.0
O.D. Therefore, the color development within individual microwells must be watched by the person running the assay and the substrate reaction stopped before positive wells are no longer properly detectable. Stop the enzyme reaction by quickly pipetting 100 μL of Stop Solution into each well, including the blank wells. It is important that the Stop Solution is spread quickly and uniformly throughout the microwells to completely inactivate the enzyme. Results must be read immediately after the Stop Solution is added or within one hour if the microwell strips are stored at 2 - 8°C in the dark. Read absorbance of each microwell on a spectrophotometer using 450 nm as the primary wavelength.

In data set [4] the test system is four human cancer cell lines (A-549, MCF-7, Panc-1, HT-29). The data set can be described thus: Antiproliferative assay, average over the four cancer cell lines (GI50). The settings on record: average of the four cancer cell lines. It counts as cell-based. The protocol:
as §1
4.2.1.2. Assay for antiproliferative effect
To explore the antiproliferative potential of compounds propidium iodide fluorescence assay was performed using different cell lines such as Panc-1 (pancreas cancer cell line), MCF-7 (breast […]
To calculate the total nuclear DNA, a fluorescent dye (propidium iodide, PI) is used which can attach to the DNA, thus offering a quick and precise technique. PI cannot pass through the cell membrane and its signal intensity can be considered as directly proportional to quantity of cellular
DNA. Cells whose cell membranes are damaged or have changed permeability are counted as dead ones. The assay was performed by seeding the cells of different cell lines at a density of 3000- […]
The medium was removed; the compounds were added to the plates at 10 μM concentrations (in 0.1% DMSO) in triplicates, followed by incubation for 48h. DMSO (0.1%) was used as control. After incubation, medium was removed followed by the addition of PI (25 μl, 50μg/mL in water/medium) to each well of the plates. At - 80 °C, the plates were allowed to freeze for 24 h, followed by thawing at 25 °C. A fluorometer (Polar-Star BMG Tech) was used to record the readings at excitation and emission wavelengths of 530 and 620 nm for each well. The percentage cytotoxicity of compounds was calculated using […]
Where ATC= Absorbance of treated cells and AC= Absorbance of control. […]
positive control in the assay.

Structures are written as SMILES.

One may read the viability as a per cent measure of how many cells are alive, often set against a control. Read a high viability as less harm to the cells. A word on the GI50: it is the concentration giving 50% growth inhibition.

The compound `O=C(NCC(c1ccccc1)c1c(-c2ccccc2)[nH]c2ccccc12)c1cc2cc(Cl)ccc2[nH]1` (stereo not drawn) [Compound Va, 5-Chloro-N-(2-phenyl-2-(2-phenyl-1H-indol-3-yl)ethyl)-1H-indole-2-carboxamide] returned a viability at 96 h, 50 µM in data set [1] of 91%. Besides, in data set [2], the “Caspase-8 Conc” value is on record as 3.50 ng/mL and the “Caspase-8 Fold Change” value stood at 35. Further, in data set [3], the “Bcl-2 Conc” value turned out to be 0.75 ng/mL and the “Bcl-2 Fold Reduction” value is reported as 7. In data set [4], this compound came in with a GI50 of 26 nM.

`CO/C=C/c1c(C(=O)NCC(c2ccccc2)c2c(-c3ccccc3)[nH]c3ccccc23)[nH]c2ccc(Cl)cc12` (stereo not drawn) [Compound Vg, (E)-5-Chloro-3-(2-methoxyvinyl)-N-(2-phenyl-2-(2-phenyl-1H-indol-3-yl)ethyl)-1H-indole-2-carboxamide]: in data set [1], the viability at 96 h, 50 µM came out at 89%. Moreover, in data set [2], the “Caspase-8 Conc” value was 2.20 ng/mL and the “Caspase-8 Fold Change” value was determined as 22. Further, in data set [3], the “Bcl-2 Conc” value turned out to be 0.85 ng/mL and the “Bcl-2 Fold Reduction” value came to 6. The GI50 in data set [4] was 31 nM.

The values are drawn from PMC10385579, “Design, Synthesis, and Biological Evaluation of Indole-2-carboxamides as Potential Multi-Target Antiproliferative Agents” (Pharmaceuticals, 2023).
